The subject of assay [1] is 4T1-HER2 cells. The experiment in a line: cell viability by Guava flow cytometry (forward scattering). The conditions noted are these: FIG. 13A; UVADEX alone, 10 μM 8-MOP equivalent; 1 Gy of 80 kVp; p=0.97. It is filed as cell-based, murine. Here is the method: (§1) As part of the baseline study, in-vitro studies were conducted on plated cells following standard procedures. Cells were maintained in RPMI-1640 supplemented with 10% fetal bovine serum and L-glutamine from GIBCO (Grand Island, N.Y.) growing in a humidified atmosphere of 5% CO2. After incubation, cells were trypsinized and plated evenly onto twelve 12-well plates for 24 hours. About 20 minutes prior to irradiation, the 12 wells of each plate were exposed to the following combinations of additives: (1) control—cells only with no additives, (2) UVADEX only, (3) phosphors only, (4) UVADEX+ phosphors. Each plate had 12 wells with three wells for each of the four treatment arms. […]
(§2) Two primary flow cytometry analyses were used, both determined at 48 hours after treatment. […] The first analysis evaluated was metabolic cell viability (herein referred to as cell viability) calculated from the number of whole cells per well as determined using forward scattering (FSC). […]
(§3) FIGS. 13A-13D illustrates the efficacy of treatment in-vitro in 4T1-HER2 cells, utilizing a regimen of 1/10-diluted UVADEX (with equivalent of 10 uM 8-MOP), 50 μg/mL phosphor 1 Gy of 80 kVp x-rays. […] In FIG. 13A, cell viability after treatment (10 μM 8-MOP equivalent dilution of UVADEX, 50 μg/mL phosphor, 1 Gy of 80 kVp radiation) as determined by Guava flow cytome cytometry is depicted. […]
In general terms: Flow cytometry measures light scatter and fluorescence of single cells or particles in a stream.

For assay [2], the system named is 4T1-HER2 cells. The experiment in a line: Methylene blue staining for cell viability. Type of assay: cell-based, murine. The settings on record: FIGS. 13C, 13D; individual components; 1 Gy of 80 kVp x-rays; UVADEX 10 uM 8-MOP equivalent, phosphor 25, 50, 100 μg/mL. The source says:
Methylene blue staining of viable 4T1-HER2 cells confirms that the device works well according to the target parameters identified above. A plate having six (6) wells is subjected to treatment. […] One well (#1) is the control. One well (#2) has phosphor coated with EC and DLC (H100). One well (#3) has phosphor coated with EC (but no DLC). One well (#4) has drug UVADEX but no phosphors. One well (#5) has drug UVADEX and phosphors coated with EC and DLC. One well (#6) has drug UVADEX and phosphors coated with EC and no DLC.
All wells were exposed to the x-ray conditions noted above. […] One added benefit to a dual coating is redundancy in safety of the treatment.
(§4) Other assays were used to provide independent complimentary information on cell viability, e.g. Methylene blue staining and ATP-induced Luminescence imaging (Cell-Titer-Glo® Luminescence Cell Viability Assay). The luminescence imaging permitted investigation of the cytotoxicity of psoralen activated directly with a UV lamp, and in the absence of phosphors and x-ray radiation.
FIGS. 13A-13D illustrates the efficacy of treatment in-vitro in 4T1-HER2 cells, utilizing a regimen of 1/10-diluted UVADEX (with equivalent of 10 uM 8-MOP), 50 μg/mL phosphor 1 Gy of 80 kVp x-rays. FIG. 13A presents the cell viability data for three treatment conditions: UVADEX alone, phosphors alone, and the combination of UVADEX and phosphors. […]

Assay [3] deals with 4T1-HER2 cells. The experiment in a line: Annexin V positivity by flow cytometry. Type of assay: cell-based, murine. The conditions noted are these: FIG. 13B; either with or without x-ray (p values of 0.90 and 0.09). As for the experimental part:
as §1, §2, §3

Assay [4] deals with KP-B (sarcoma) cell lines. The experiment in a line: Cell-Titer-Glo Luminescence Cell Viability Assay, UV activated psoralen. The settings on record: FIG. 14A; psoralen 40 μM; UV light 0, 0.25, 0.5, 1.0 J/cm^2; N=4. Type of assay: cell-based, mice.
Source text: The mouse breast cancer cell line 4T1 was purchased from ATCC. 4T1-HER2 was provided by Dr. Michael Kershaw (Cancer Immunology Program, Peter MacCallum Cancer Centre, Victoria, Australia) and maintained in DMEM with penicillin/streptomycin and 10% FBS The Sarcoma KP-B cell lines were derived from primary tumors LSL-Kras; p53 Flox/Flox mice (45).
as §4
(§5) FIG. 14B presents data on CT2A malignant glioma cells, for a range of treatment parameters including variable x-ray dose (0, 0.67 and 1 Gy), phosphor concentration (50 or 100 μg) and psoralen concentration (8-MOP) at 10, 20 and 40 μM respectively. […] N=4 for each cell line at each UV light condition (0, 0.25, 0.5, 1.0 J/cm^2). The psoralen concentration was 40 μM. For FIG. 14B, in CT2A cells, the treatment cytotoxicity increases with X-ray dose (0, 0.67 and 1.00 Gy respectively), concentration of 8-MOP psoralen (10, 20 and 40 μM respectively), and phosphor (50 and 100 μg/ml) respectively (p values shown thereon).

The next assay relates to 4T1. The assay is described as above. It is filed as cell-based, murine. The conditions noted are these: FIG. 14A; psoralen 40 μM; UV light 0, 0.25, 0.5, 1.0 J/cm^2; N=4.
Source text: as §4, §5

For assay [5], the system named is CT2A (murine malignant glioma). The description is as above. Type of assay: cell-based. The conditions noted are these: FIG. 14A; psoralen 40 μM; UV light 0, 0.25, 0.5, 1.0 J/cm^2; N=4.
Source text: as §4, §5

Consider `COc1c2occc2cc2ccc(=O)oc12` [UVADEX, 8-methoxypsoralen], for which the “effect of addition of radiation on cell viability” value in the assay with 4T1-HER2 cells [1] is listed as “no significant effect on cell viability”. The “cell viability by methyl blue staining” value with 4T1-HER2 cells [2] was “little effect”. The “apoptotic activity (Annexin V)” value with 4T1-HER2 cells [3] is on record as “negligible apoptotic activity”.

For `O=c1ccc2cc3ccoc3cc2o1` [psoralen], the viable cells entry (in assay [4]; in the assay with 4T1; in assay [5]) was “reduce viable cells” each time.

The values above are taken from patent publication US10940329B2, “Phosphor-containing drug activator activatable by a Monte Carlo derived x-ray exposure, system containing the activator, and methods for use” (IMMUNOLIGHT, LLC, priority 2016, dated 2021).
